Reference: ChEMBL document CHEMBL1671637, “Development, stability, and molecular mechanisms of macrolide resistance in Campylobacter jejuni” (2008)
Values after ≈ are worked out from the molar mass of the structure shown.

Tests used:
[1] = system: Campylobacter jejuni; assay: Antimicrobial activity against Campylobacter jejuni DC30 by agar dilution method; format: functional
[2] = system: Campylobacter jejuni; assay: Antimicrobial activity against Campylobacter jejuni JL290 harboring protein L22 with insertion of amino acid TSH at position 98 selected at 8 ug/ml after 3 to 4 days by agar dilution method; format: functional
[3] = system: Campylobacter jejuni; assay: Antimicrobial activity against Campylobacter jejuni JL306 harboring protein L22 with insertion of amino acid TSH at position 98 selected at 4 to 16 times MIC after 3 to 4 days by agar dilution method; format: functional
[4] = system: Campylobacter jejuni; assay: Antimicrobial activity against Campylobacter jejuni JL298 selected at 4 to 16 times MIC after 3 to 4 days by agar dilution method; format: functional
[5] = system: Campylobacter jejuni; assay: Antimicrobial activity against Campylobacter jejuni DC26 infected in 15 days old chicken by agar dilution method in presence of food with tylosin; format: functional
[6] = system: Campylobacter jejuni; assay: Antimicrobial activity against Campylobacter jejuni JL288 harboring 23S rRNA A2074C mutant selected at 4 to 16 times MIC after 3 to 4 days by agar dilution method; format: functional
[7] = system: Campylobacter jejuni; assay: Antimicrobial activity against Campylobacter jejuni DC28 harboring protein L4 G74D mutant by agar dilution method; format: functional
[8] = system: Campylobacter jejuni; assay: Antimicrobial activity against Campylobacter jejuni DC12 harboring protein L4 G74D mutant by agar dilution method; format: functional
[9] = system: Campylobacter jejuni; assay: Antimicrobial activity against Campylobacter jejuni JL295 selected at 2 ug/ml after 3 to 4 days by agar dilution method; format: functional
[10] = system: Campylobacter jejuni; assay: Antimicrobial activity against Campylobacter jejuni DC35 harboring protein L4 G74D mutant by agar dilution method; format: functional
[11] = system: Campylobacter jejuni; assay: Antimicrobial activity against Campylobacter jejuni DC33 harboring 23S rRNA A2074G mutant by agar dilution method; format: functional
[12] = system: Campylobacter jejuni; assay: Antimicrobial activity against Campylobacter jejuni JL297 selected at 4 to 16 times MIC after 3 to 4 days by agar dilution method; format: functional
[13] = system: Campylobacter jejuni; assay: Antimicrobial activity against Campylobacter jejuni DC2 infected in 15 days old chicken by agar dilution method; format: functional
[14] = system: Campylobacter jejuni; assay: Antimicrobial activity against Campylobacter jejuni JL293 selected at 4 to 16 times MIC after 3 to 4 days by agar dilution method; format: functional
[15] = system: Campylobacter jejuni; assay: Antimicrobial activity against Campylobacter jejuni JL283 selected at 4 to 16 times MIC after 3 to 4 days by agar dilution method; format: functional
[16] = system: Campylobacter jejuni; assay: Antimicrobial activity against Campylobacter jejuni DC27 harboring protein L4 G74D mutant by agar dilution method; format: functional
[17] = system: Campylobacter jejuni; assay: Antimicrobial activity against Campylobacter jejuni DC2 infected in 15 days old chicken by agar dilution method in presence of feed with tylosin; format: functional
[18] = system: Campylobacter jejuni; assay: Antimicrobial activity against Campylobacter jejuni JL307 harboring protein L22 with insertion of amino acid TSH at position 98 selected at 4 to 16 times MIC after 3 to 4 days by agar dilution method; format: functional
[19] = system: Campylobacter jejuni; assay: Antimicrobial activity against Campylobacter jejuni DC26 harboring protein L4 G74D mutant by agar dilution method; format: functional
[20] = system: Campylobacter jejuni; assay: Antimicrobial activity against Campylobacter jejuni DC7 harboring protein L4 G74D mutant by agar dilution method; format: functional
[21] = system: Campylobacter jejuni; assay: Antimicrobial activity against Campylobacter jejuni JL292 selected at 4 to 16 times MIC after 3 to 4 days by agar dilution method; format: functional
[22] = system: Campylobacter jejuni; assay: Antimicrobial activity against Campylobacter jejuni harboring mutation in cmeB by agar dilution method relative to wild type Campylobacter jejuni; format: functional
[23] = system: Campylobacter jejuni; assay: Antimicrobial activity against Campylobacter jejuni JL287 harboring 23S rRNA A2074C mutant selected at 4 to 16 times MIC after 3 to 4 days by agar dilution method; format: functional
[24] = system: Campylobacter jejuni; assay: Antimicrobial activity against Campylobacter jejuni DC22 harboring protein L4 G74D mutant by agar dilution method; format: functional
[25] = system: Campylobacter jejuni; assay: Antimicrobial activity against Campylobacter jejuni JL285 selected at 4 to 16 times MIC after 3 to 4 days by agar dilution method; format: functional
[26] = system: Campylobacter jejuni; assay: Antimicrobial activity against Campylobacter jejuni JL276 selected at 4 ug/ml after 3 to 4 days by agar dilution method; format: functional
[27] = system: Campylobacter jejuni; assay: Antimicrobial activity against Campylobacter jejuni DC19 harboring protein L4 G57D mutant by agar dilution method
[28] = system: Campylobacter jejuni; assay: Antimicrobial activity against Campylobacter jejuni DC8 harboring protein L4 G74D mutant by agar dilution method; format: functional
[29] = system: Campylobacter jejuni; assay: Antimicrobial activity against Campylobacter jejuni DC14 harboring protein L4 G57D mutant by agar dilution method
[30] = system: Campylobacter jejuni; assay: Antimicrobial activity against Campylobacter jejuni JL301 harboring protein L22 with insertion of amino acid TSH at position 98 selected at 4 to 16 times MIC after 3 to 4 days by agar dilution method; format: functional
[31] = system: Campylobacter jejuni; assay: Antimicrobial activity against Campylobacter jejuni DC25 harboring protein L4 G74D mutant by agar dilution method; format: functional
[32] = system: Campylobacter jejuni; assay: Antimicrobial activity against Campylobacter jejuni DC34 harboring protein L4 G74D mutant by agar dilution method; format: functional
[33] = system: Campylobacter jejuni; assay: Antimicrobial activity against Campylobacter jejuni DC11 by agar dilution method; format: functional
[34] = system: Campylobacter jejuni; assay: Antimicrobial activity against Campylobacter jejuni DC16 harboring protein L4 G74D mutant by agar dilution method; format: functional
[35] = system: Campylobacter jejuni; assay: Antimicrobial activity against Campylobacter jejuni JL299 harboring protein L22 with insertion of amino acid TSH at position 98 selected at 4 to 16 times MIC after 3 to 4 days by agar dilution method; format: functional
[36] = system: Campylobacter jejuni; assay: Antimicrobial activity against Campylobacter jejuni NCTC 11168 by agar dilution method; format: functional
[37] = system: Campylobacter jejuni; assay: Antimicrobial activity against Campylobacter jejuni DC38 harboring protein L4 G74D mutant by agar dilution method; format: functional
[38] = system: Campylobacter jejuni; assay: Antimicrobial activity against Campylobacter jejuni DC37 harboring protein L4 G74D mutant by agar dilution method; format: functional
[39] = system: Campylobacter jejuni; assay: Antimicrobial activity against Campylobacter jejuni DC32 harboring 23S rRNA A2074G mutant by agar dilution method; format: functional

`CC[C@H]1OC(=O)[C@H](C)[C@@H](O[C@H]2C[C@@](C)(OC)[C@@H](O)[C@H](C)O2)[C@H](C)[C@@H](O[C@@H]2O[C@H](C)C[C@H](N(C)C)[C@H]2O)[C@](C)(O)C[C@@H](C)C(=O)[C@H](C)[C@@H](O)[C@]1(C)O` [ERYTHROMYCIN] was tested, and the MIC [1] was 1 mg/L (≈ 1.36 µM), the MIC [2] was 32 mg/L (≈ 43.6 µM) and the MIC [3] was 64 mg/L (≈ 87.2 µM). It also gave an MIC [4] of 8 mg/L (≈ 10.9 µM), an MIC [5] of 64 mg/L and an MIC [6] greater than 512 mg/L. It also gave an MIC [7] of 8 mg/L (≈ 10.9 µM), an MIC [8] of 64 mg/L (≈ 87.2 µM) and an MIC [9] of 8 mg/L (≈ 10.9 µM). For the same compound, the MIC [10] was 128 mg/L (≈ 174 µM), the MIC [11] was greater than 512 mg/L and the MIC [12] was 8 mg/L (≈ 10.9 µM). It also gave an MIC [13] of 32 mg/L (≈ 43.6 µM), an MIC [14] of 8 mg/L (≈ 10.9 µM) and an MIC [15] of 64 mg/L (≈ 87.2 µM). For the same compound, the MIC [16] was 64 mg/L (≈ 87.2 µM), the MIC [17] was 32 mg/L and the MIC [18] was 256 mg/L (≈ 349 µM). For the same compound, the MIC [19] was 64 mg/L (≈ 87.2 µM), the MIC [20] was 8 mg/L (≈ 10.9 µM) and the MIC [21] was 8 mg/L (≈ 10.9 µM). The “fold change (FC)” value [22] was 8, the MIC [23] was greater than 512 mg/L and the MIC [24] was 32 mg/L (≈ 43.6 µM). For the same compound, the MIC [25] was 128 mg/L (≈ 174 µM), the MIC [26] was 16 mg/L (≈ 21.8 µM) and the MIC [27] was 16 mg/L (≈ 21.8 µM). For the same compound, the MIC [28] was 32 mg/L (≈ 43.6 µM), the MIC [29] was 32 mg/L (≈ 43.6 µM) and the MIC [30] was 512 mg/L (≈ 698 µM). The MIC [31] was 64 mg/L (≈ 87.2 µM), the MIC [32] was 128 mg/L (≈ 174 µM) and the MIC [33] was 64 mg/L (≈ 87.2 µM). It also gave an MIC [34] of 32 mg/L (≈ 43.6 µM), an MIC [35] of 64 mg/L (≈ 87.2 µM) and an MIC [36] of 1 mg/L (≈ 1.36 µM). It also gave an MIC [37] of 128 mg/L (≈ 174 µM), an MIC [38] of 128 mg/L (≈ 174 µM) and an MIC [39] greater than 512 mg/L.
